Laboratory results from patent publication US20130224151A1, “Use of FAAH Inhibitors for Treating Abdominal, Visceral and Pelvic Pain” (UNITED STATES OF AMERICA, priority 2010, published 2013).

Legend:
Female Wistar rats = assay: Basal sensitivity to colorectal distension model; assay type: in vivo, rat; conditions: 3 mg/kg or 10 mg/kg subcutaneously; CRD measured 3 hrs 15 minutes later
[1] = system: FAAH substrates (AEA, OEA, and PEA); assay: Brain and GI tissue fatty acid amide levels in cortagine-induced visceral hypersensitive rats (LC-MS/MS); assay type: in vivo, rat
Procedure: Rats were treated with the FAAH inhibitor URB597 [3′-(aminocarbonyl) biphenyl-3-yl cyclohexylcarbamate](3 mg/kg, SC route) or vehicle (DMSO/cremophor/isotonic saline (1:1:8 v:v:v), PO route) in the cortagine-induced visceral hypersensitivity model as described in Example 3. Briefly Male Sprague-Dawley rats were habituated to Bollman cages for 3 days. The following day, rats were anesthetized with isoflurane and a 5 cm balloon pressure sensor was inserted into the distal colon 1 cm from the anus. After 20 min, a first colorectal distension (CRD) baseline was performed (10, 20, 40, 60 mmHg, 20 s duration, 4 min inter-stimulus) and the visceromotor response (VMR) assessed. After the first CRD, rats were treated with URB597 (3 mg/kg in vehicle, SC route) or vehicle (DMSO/cremophor/isotonic saline (1:1:8 v:v:v), PO route). Two hours later, rats were treated with cortagine (10 μg/kg in vehicle, IP route). After 15 min, a second CRD was performed.
Thirty min after the second CRD, rats were anesthetized with isoflurane, decapitated, and brains were collected rapidly, placed on sheets of aluminum foil sitting on dry ice to flash freeze. A 5 cm-long segment of jejunum and a 5 cm-long segment of ascending colon were collected, split open, dipped in ice-cold physiological saline to rinse away intestinal contents, placed on aluminum foil on top of dry ice to flash freeze. Then, brains, jejunum and ascending colon were placed in separate labeled Falcon tubes, respectively, and stored at −80° C.
On each experimental day, one naive untreated rat (n=6 total) (not treated with test compounds, not treated with cortagine and not subjected to CRD assay), kept in normal housing and handling conditions was also euthanized and its brain, jejunum and ascending colon collected as described above. The other rats were euthanized by CO2 inhalation followed by thoracotomy.
Levels of the endocannabinoids N-arachidonoyl-ethanolamide (AEA, anandamide), N-oleoyl-ethanolamide (OEA) and N-palmitoyl-ethanolamide (PEA) in the brain, jejunum and ascending colon were measured by LC-MS/MS.
The fatty acid amides were extracted from the samples and standards by modifications of the method described in Richardson et al, Analytical Biochemistry, 2007, 360: 216-226, as described below.
Intestine samples were removed from the −80° C. freezer and placed on dry ice. Each intestine sample was weighed in a clean, tared 50 mL polypropylene BD Falcon tube and placed on wet ice after recording the weight. Using a glass pipette, 7 mL of (room temp.) 9:1 ethyl acetate:hexane were added to each intestine. Then, 2.5 μL of 5 μg/mL of IS (12.5 ng, prepared as indicated below) was added to each intestine sample. One conical container was removed at a time from the wet ice and homogenized until the tissue was uniformly minced. Using a homogenizer probe, the contents were homogenized for 30 seconds; 3 mL of water were added to each intestine sample, then homogenized for an additional 15 seconds. The homogenizer probe was rinsed with water between samples and with water and 70% EtOH between dose groups. The homogenates were vortexed for ˜5 sec then centrifuged at […], 3500 rpm for 20 minutes. The ethyl acetate layer (top layer) was recovered and placed in 15 mL glass tubes. The solvent was evaporated under nitrogen (TurboVap, 55° C.) until dry and the tissue extracts were reconstituted in 0.25 mL of 1:3 CHCl3:MeOH. Then the glass tubes were placed in a 37° C. shaking water bath for 5 min and vortexed again to re-suspend them. The samples were transferred to Eppendorf tubes and centrifuged (at room temp) at 13,000 rpm for 3 min. Then, 75 μL of each sample and standard was transferred to a 96 deep well plate on wet ice, and the remaining supernatant was stored at −80° C. The samples and standards were diluted to 1:1 using a multi-channel pipette by adding 75 μL of 100 ng/mL d-4-AEA in ice-cold methanol and pipetting up and down to mix. […]

[2] = URB597 3 mg/kg SC, first trial, Student's t test

NC(=O)c1cccc(-c2cccc(OC(=O)NC3CCCCC3)c2)c1 [URB597, 3′-(aminocarbonyl) biphenyl-3-yl cyclohexyl carbamate, reference compound]
basal sensitivity to colorectal distension (number of abdominal contractions) (Female Wistar rats): does not alter basal sensitivity | levels of AEA, OEA and PEA in the brain, ascending colon and jejunum ([1]; URB597 3 mg/kg SC single administration, cortagine-induced visceral hypersensitive rats, first trial, 3 mg/kg): elevated levels of the three FAAH substrates | levels of AEA and PEA in the jejunum [1, 2]: statistically different from those in the naïve rats | levels of AEA, OEA, and PEA in the ascending colon versus vehicle treated and naïve rats [1, 2]: statistically different from those in the vehicle treated and naïve rats | levels of AEA, OEA, and PEA in the brain versus vehicle treated and naïve rats [1, 2]: statistically different from those in the vehicle treated and naïve rats | levels of OEA in the jejunum [1, 2]: statistically different from those in the vehicle treated and naïve rats | levels of AEA, OEA and PEA in the brain, ascending colon and jejunum ([1]; second trial, URB597 3 mg/kg SC + cortagine 10 ug/kg IP): elevated levels of the three FAAH substrates
